In ChEMBL document CHEMBL4507268 (2021) one finds Ki and residual activity data, which are given here for 2 molecules.

For experiment [1], the target named is Sigma non-opioid intracellular receptor 1 (Homo sapiens, UniProt Q99720). The experiment can be described thus: GPCRScan assay: inhibition of Sigma 1. Details: radioligand conc. used [nm] 4.0 – 5.0, parental cells HEKT.
The target in experiment [2] is Dual specificity testis-specific protein kinase 1 (Homo sapiens) (UniProt Q15569). Particulars: Compound concentration 1000.0 nM.
Sequence of Dual specificity testis-specific protein kinase 1 (Homo sapiens) (Q15569 whole entry, looked up): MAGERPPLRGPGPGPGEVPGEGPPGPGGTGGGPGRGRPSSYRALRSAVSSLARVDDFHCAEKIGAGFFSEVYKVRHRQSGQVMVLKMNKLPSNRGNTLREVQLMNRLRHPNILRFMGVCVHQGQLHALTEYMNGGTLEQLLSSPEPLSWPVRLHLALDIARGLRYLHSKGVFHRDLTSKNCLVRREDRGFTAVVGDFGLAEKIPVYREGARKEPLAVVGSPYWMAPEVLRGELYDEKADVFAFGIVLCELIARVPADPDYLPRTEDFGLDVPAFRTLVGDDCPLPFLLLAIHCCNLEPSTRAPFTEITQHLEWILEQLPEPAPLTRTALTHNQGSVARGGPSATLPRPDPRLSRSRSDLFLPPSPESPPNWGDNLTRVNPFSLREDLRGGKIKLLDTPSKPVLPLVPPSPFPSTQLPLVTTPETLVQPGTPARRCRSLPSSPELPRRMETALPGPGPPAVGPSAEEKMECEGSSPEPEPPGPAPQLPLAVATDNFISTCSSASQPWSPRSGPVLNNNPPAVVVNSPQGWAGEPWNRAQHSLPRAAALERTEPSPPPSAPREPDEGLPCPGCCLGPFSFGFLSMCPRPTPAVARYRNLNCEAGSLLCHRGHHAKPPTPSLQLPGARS
Experiment [3] has as its target T1, Beta-adrenergic receptor kinase 1 (Homo sapiens) (UniProt P25098).
T1 sequence (whole entry): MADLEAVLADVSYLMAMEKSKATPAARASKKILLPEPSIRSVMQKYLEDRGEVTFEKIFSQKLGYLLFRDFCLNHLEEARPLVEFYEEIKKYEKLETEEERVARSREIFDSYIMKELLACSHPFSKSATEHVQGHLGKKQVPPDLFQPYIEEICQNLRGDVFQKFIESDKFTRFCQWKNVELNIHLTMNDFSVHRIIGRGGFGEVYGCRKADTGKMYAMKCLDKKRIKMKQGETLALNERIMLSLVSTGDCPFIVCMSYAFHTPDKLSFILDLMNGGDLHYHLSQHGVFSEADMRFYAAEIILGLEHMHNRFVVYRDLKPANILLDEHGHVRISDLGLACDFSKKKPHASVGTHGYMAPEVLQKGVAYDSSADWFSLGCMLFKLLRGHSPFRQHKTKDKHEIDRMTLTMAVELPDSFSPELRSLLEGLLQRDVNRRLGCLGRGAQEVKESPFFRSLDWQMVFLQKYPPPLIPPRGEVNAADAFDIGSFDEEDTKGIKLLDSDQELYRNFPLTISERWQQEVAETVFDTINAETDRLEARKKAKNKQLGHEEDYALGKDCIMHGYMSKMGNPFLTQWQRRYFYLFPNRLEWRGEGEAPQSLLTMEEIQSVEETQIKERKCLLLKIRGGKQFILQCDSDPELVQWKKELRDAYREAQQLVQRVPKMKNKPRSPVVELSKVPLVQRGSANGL
Particulars: Compound concentration 1000.0 nM.

Experiment [4] concerns Epidermal growth factor receptor (Homo sapiens), P00533 [G719C]. The following applies: Compound concentration 1000.0 nM.
Experiment [5] deals with T2, Serine/threonine-protein kinase Nek1 (Homo sapiens) (UniProt Q96PY6).
T2 sequence (whole entry): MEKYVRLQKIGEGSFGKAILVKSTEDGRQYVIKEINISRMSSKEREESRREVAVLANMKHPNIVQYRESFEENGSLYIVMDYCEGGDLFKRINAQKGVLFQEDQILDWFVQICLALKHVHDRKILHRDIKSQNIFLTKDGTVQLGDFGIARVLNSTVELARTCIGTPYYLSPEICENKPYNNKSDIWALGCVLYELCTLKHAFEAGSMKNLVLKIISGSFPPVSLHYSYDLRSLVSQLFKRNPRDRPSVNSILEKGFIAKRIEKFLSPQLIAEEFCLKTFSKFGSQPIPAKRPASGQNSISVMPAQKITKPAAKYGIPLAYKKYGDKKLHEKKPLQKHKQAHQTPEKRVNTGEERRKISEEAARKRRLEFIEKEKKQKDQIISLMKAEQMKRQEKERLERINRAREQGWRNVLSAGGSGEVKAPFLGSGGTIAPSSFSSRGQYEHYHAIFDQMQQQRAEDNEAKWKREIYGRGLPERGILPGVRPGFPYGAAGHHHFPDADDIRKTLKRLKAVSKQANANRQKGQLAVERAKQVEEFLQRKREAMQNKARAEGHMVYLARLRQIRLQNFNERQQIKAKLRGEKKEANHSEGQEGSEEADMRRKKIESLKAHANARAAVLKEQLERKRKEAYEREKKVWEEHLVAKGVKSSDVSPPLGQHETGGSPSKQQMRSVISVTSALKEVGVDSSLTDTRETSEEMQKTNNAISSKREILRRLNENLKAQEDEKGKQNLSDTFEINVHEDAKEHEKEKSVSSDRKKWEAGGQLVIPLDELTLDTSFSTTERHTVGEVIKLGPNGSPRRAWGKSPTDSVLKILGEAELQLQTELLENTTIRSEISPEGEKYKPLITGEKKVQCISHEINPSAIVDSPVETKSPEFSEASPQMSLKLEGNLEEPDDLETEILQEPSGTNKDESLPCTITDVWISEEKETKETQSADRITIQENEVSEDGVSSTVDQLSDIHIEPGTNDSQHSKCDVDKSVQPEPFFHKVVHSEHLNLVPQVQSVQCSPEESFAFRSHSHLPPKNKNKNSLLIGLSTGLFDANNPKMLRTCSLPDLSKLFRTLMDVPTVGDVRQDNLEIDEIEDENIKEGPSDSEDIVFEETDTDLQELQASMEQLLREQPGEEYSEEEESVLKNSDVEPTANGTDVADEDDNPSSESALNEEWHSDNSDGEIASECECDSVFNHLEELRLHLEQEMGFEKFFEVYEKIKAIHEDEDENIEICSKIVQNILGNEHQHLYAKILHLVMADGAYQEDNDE
The following applies: Compound concentration 1000.0 nM.

In experiment [6] the target is Serine/threonine-protein kinase LATS1 (Homo sapiens) (UniProt O95835). Particulars: Compound concentration 1000.0 nM.
Sequence of Serine/threonine-protein kinase LATS1 (Homo sapiens) (O95835 whole entry): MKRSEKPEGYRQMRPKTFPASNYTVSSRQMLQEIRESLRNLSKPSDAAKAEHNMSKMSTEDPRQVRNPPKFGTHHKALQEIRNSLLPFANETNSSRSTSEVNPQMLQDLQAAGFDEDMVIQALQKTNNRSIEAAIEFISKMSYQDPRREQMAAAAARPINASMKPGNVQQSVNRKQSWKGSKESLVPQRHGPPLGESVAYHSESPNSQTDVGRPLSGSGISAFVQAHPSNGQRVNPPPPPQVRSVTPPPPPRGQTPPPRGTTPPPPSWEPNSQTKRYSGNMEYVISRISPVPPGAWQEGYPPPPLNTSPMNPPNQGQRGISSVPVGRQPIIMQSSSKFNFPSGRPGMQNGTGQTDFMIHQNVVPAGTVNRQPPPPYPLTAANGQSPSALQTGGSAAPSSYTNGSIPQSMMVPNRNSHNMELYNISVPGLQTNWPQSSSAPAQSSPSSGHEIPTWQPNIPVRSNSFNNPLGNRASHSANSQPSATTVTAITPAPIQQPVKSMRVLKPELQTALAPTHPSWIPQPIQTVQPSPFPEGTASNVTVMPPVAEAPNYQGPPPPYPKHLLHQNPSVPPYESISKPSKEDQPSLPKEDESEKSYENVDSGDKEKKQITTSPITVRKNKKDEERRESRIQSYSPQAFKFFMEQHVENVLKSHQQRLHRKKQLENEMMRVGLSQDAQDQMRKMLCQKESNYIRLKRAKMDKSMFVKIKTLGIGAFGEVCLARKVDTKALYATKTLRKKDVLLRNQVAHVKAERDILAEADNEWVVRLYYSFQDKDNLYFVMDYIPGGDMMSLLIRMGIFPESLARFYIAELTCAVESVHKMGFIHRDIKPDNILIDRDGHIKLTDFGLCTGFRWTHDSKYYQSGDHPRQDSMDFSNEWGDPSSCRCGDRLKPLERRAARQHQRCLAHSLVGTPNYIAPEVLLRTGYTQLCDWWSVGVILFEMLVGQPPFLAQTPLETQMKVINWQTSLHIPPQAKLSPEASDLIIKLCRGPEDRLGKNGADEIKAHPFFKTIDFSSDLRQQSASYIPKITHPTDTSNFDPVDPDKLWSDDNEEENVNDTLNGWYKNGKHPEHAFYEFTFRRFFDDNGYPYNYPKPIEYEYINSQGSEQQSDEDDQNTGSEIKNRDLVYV
For experiment [7], the target named is Serine/threonine-protein kinase PAK 4 (Homo sapiens) (UniProt O96013). Particulars: Compound concentration 1000.0 nM.
Sequence of Serine/threonine-protein kinase PAK 4 (Homo sapiens) (O96013 whole entry, looked up): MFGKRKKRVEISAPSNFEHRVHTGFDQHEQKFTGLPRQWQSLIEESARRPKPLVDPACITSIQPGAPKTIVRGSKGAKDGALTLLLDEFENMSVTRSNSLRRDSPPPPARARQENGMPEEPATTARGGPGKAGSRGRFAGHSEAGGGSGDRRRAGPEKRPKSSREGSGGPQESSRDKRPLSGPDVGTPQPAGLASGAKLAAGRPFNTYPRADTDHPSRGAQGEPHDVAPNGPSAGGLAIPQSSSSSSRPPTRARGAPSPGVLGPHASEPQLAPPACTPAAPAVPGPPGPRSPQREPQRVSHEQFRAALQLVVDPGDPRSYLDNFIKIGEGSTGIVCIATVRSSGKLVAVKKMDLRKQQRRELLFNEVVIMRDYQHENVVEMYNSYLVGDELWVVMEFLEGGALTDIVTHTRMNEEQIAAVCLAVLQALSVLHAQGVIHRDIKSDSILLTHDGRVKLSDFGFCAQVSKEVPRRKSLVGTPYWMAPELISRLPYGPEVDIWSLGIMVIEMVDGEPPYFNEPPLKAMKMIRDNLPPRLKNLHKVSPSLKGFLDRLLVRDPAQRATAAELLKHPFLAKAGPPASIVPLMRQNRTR
Experiment [8] addresses Cyclin-dependent kinase-like 5 (Homo sapiens) (UniProt O76039). Particulars: Compound concentration 1000.0 nM.
In experiment [9] the test system is Tyrosine-protein kinase ABL1 (Homo sapiens), P00519 [M351T]. Particulars: Compound concentration 1000.0 nM.

Sequence of Sigma non-opioid intracellular receptor 1 (Q99720 whole entry): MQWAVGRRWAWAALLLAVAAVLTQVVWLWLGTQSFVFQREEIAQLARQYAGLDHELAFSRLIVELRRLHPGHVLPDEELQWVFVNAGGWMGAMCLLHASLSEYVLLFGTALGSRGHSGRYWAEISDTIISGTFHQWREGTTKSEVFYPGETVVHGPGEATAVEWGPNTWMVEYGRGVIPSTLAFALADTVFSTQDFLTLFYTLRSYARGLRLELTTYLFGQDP
Sequence of Cyclin-dependent kinase-like 5 (Homo sapiens) (O76039 whole entry): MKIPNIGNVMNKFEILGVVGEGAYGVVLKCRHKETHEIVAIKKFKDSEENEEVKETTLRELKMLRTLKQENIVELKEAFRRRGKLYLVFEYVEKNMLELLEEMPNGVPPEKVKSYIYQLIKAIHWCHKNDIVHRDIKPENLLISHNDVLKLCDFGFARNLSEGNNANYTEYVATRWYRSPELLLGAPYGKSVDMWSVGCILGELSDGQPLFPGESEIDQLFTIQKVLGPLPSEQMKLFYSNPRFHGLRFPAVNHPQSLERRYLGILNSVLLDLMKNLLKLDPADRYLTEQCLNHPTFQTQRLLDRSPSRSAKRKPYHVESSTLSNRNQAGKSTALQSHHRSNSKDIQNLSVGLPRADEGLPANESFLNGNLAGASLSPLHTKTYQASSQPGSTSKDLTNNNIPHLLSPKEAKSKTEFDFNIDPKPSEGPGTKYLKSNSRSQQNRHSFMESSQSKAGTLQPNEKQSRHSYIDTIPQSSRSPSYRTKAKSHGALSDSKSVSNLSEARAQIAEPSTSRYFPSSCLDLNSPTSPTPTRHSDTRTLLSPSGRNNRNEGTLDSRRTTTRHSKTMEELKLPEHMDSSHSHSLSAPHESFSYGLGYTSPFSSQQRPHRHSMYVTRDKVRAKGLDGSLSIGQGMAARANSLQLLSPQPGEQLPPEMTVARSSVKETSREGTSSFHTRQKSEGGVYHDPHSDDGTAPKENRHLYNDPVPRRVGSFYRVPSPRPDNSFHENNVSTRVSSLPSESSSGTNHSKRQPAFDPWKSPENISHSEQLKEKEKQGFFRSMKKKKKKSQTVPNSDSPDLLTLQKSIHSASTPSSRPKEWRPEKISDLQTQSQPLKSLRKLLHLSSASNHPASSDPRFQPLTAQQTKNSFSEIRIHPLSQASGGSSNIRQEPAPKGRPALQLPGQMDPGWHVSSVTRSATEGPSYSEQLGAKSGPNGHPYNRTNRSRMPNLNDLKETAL

Take `Cc1nc(C2CCN(C(=O)c3ccc(OC(F)(F)F)cc3N)CC2)c2ncc(N3CCN(C)CC3)cc2n1` [BAY-693]: the Ki in [1] was found to be 2370 nM. For the same molecule, the residual activity is 100% in experiment [2]; 92% in [3]; 100% in [4]; 97% in experiment [5]; 78% in [6]; 100% in experiment [7]. Further, the residual activity in experiment [8] was 89%; in experiment [9] it was 100%.
For the molecule `CN1CCN(c2cnc3c(C4CCN(C(=O)c5ccc(OC(F)(F)F)cc5N)CC4)ncnc3c2)CC1` [BAY-885], the Ki in experiment [1] was determined as 2500 nM. Also, the residual activity in experiment [2] is 96%; in [3], 100%; in [4], 94%; in experiment [5], 85%; in [6], 81%; in [7] it was 91%. The results for the residual activity in experiment [8] and in experiment [9] were 93% and 100%, respectively.
